# Test system: Erythema induced by UVB radiation in mouse
# Test: Photoprotection: erythema induced by UVB radiation in mouse skin
# Assay type: in vivo
# Design: key to Erythema induced by UVB radiation in mouse: presence (+); absence (-)
# Settings: individual animals No. 1-10; 0.5% gel topical, about 2.5 kJ/m^2 UVB, 24 hours after exposure
# Text: The effect of p-nitrolophine and m-nitrolophine on erythema due to exposing the mouse skin to an irradiation source at maximum in the UVB region has been studied in these assays. The results obtained have been compared with the effect of 4-methylbenzylidene camphor (P5000) a substance considered as a UVB solar filter and with the effect of butyl methoxydibenzoylmethane (P1789) an UVA type filter, both products being commonly used in antisolar cosmetics.
# 35 male mice weighing more than 20 grams have been used. After receiving them, the animals were acclimated for 7 days at the place where the assays were preformed, they were being placed in a cage with controlled temperature (22°C), with relative humidity between 50% and 75%, replacing fresh filtered air approximately 10 times per hour and with 12 h light/dark cycles (7.00 - 19.00 light and from 19.00 to 7.00 dark). For this period and during the experimental period, the animals were fed ad libitum with standard diet for rodents and running water as drink.
# The animals were randomly distributed into 4 experimental groups according to Table 7. The products to be tested were directly used, applying them in the form of a gel on an area of the skin such that each animal form its own control.
# The test was performed following the method described by Winder et al. ["A study of Pharmacological influences on ultraviolet erythema in guinea pigs". Arch. Int Pharmacodyn, 116:261-292; 1958] and by other authors [Wendy et al. "The local antinociceptive and topical antiinflamatory effects of propyl gallate in rodents". Br. J. Pharmacol, 58:573 -581; 1976; Katiyar et al. "Protective Effects of Silymarin Against Photocarcinogenesis in a Mouse Skin Model". J Natl Cancer Inst 89:556-65; 1997] with slight modifications. The day […] the assay, as much hair as possible were removed from the animals by applying a layer of commercial hair-removing cream to remove all the trace of hair and to leave the skin of the back completely bare. The rest of the hair-removing cream were removed by means of washing and rinsing with running water and the animals were the returned to their corresponding cages where they remained until the following day.
# On the day of the assay, the substances to be assayed were blindly applied on the back of the previously labelled animals following a random pattern (randomized). After applying the corresponding treatments, the animals were placed and pinned to the presentation platform of the equipment. The animals were then placed 8 cm from an ultraviolet light source of 4*40w with 313 nm of fundamental emission and a range comprised approximately between 290 and 350 nm and with an anti-UVC filter. The emission spectrum of said light source is depicted in Figure 1.
# The exposure was maintained until all the animals have received an approximate total dose of 2.5 kJ/m^2. The dose of irradiation applied was determined by means of a ultraviolet light detector, the response curve of which is shown in Figure 2.
# Twenty four hours after ending the exposure, the back of the animals was photographed and they were returned to their cages. The evaluation of erythema was performed by means of a positive/negative criterion, the percentage of protected animals being obtained. The statistic significance of the difference was evaluated by means of the non-parametric Fisher Test.
smiles,measurement,value
"O=[N+]([O-])c1ccc(-c2nc(-c3ccccc3)c(-c3ccccc3)[nH]2)cc1 [p-nitrolophine, 2-(4-nitrophenyl)-4,5-diphenyl-1H-imidazole]",Erythema induced by UVB radiation in mouse,-

# From patent EP2444396A1, “PHOTOPROTECTIVE COMPOSITION” (Apoteknos Para La Piel, S.L., priority 2009, dated 2010)
